Results reported in ChEMBL document CHEMBL2057203, “Synthesis and evaluation of novel F-18 labeled 4-aminoquinazoline derivatives: potential PET imaging agents for tumor detection” (Bioorg Med Chem Lett, 2012).

Assays:
[1] = n-octanol-PBS partition coefficient, logP of the compound; assay type: physicochemical
Plasma = test: Metabolic stability in mouse plasma after 2 hrs by radio-HPLC analysis; assay type: ADME, cell-free
[2] = Chemical stability in PBS after 2 hrs by radio-HPLC analysis at room temperature; assay type: physicochemical; details: buffer
[3] = Chemical stability in PBS after 2 hrs by radio-HPLC analysis at 60 degC; assay type: physicochemical; details: buffer
Heart [4] = test: Biodistribution in S180 tumor-bearing mouse heart at 8 to 10 uCi, iv after 5 mins by gamma counting; assay type: ADME, organism-based; details: in vivo
Liver [5] = test: Biodistribution in S180 tumor-bearing mouse liver at 8 to 10 uCi, iv after 5 mins by gamma counting; assay type: ADME, organism-based; details: in vivo
Spleen [6] = test: Biodistribution in S180 tumor-bearing mouse spleen at 8 to 10 uCi, iv after 5 mins by gamma counting; assay type: ADME, organism-based; details: in vivo
Lung [7] = test: Biodistribution in S180 tumor-bearing mouse lungs at 8 to 10 uCi, iv after 5 mins by gamma counting; assay type: ADME, organism-based; details: in vivo
Kidney [8] = test: Biodistribution in S180 tumor-bearing mouse kidneys at 8 to 10 uCi, iv after 5 mins by gamma counting; assay type: ADME, organism-based; details: in vivo
Stomach [9] = test: Biodistribution in S180 tumor-bearing mouse stomach at 8 to 10 uCi, iv after 5 mins by gamma counting; assay type: ADME, organism-based; details: in vivo
Muscle tissue [10] = test: Biodistribution in S180 tumor-bearing mouse muscle at 8 to 10 uCi, iv after 5 mins by gamma counting; assay type: ADME, organism-based; details: in vivo
Brain [11] = test: Biodistribution in S180 tumor-bearing mouse brain at 8 to 10 uCi, iv after 5 mins by gamma counting; assay type: ADME, organism-based; details: in vivo
Mus musculus [12] = test: Biodistribution in S180 cells xenografted in mouse tumor at 8 to 10 uCi, iv after 5 mins by gamma counting; assay type: ADME, organism-based, Neoplasm, CCRF S-180; details: in vivo
Blood [13] = test: Biodistribution in S180 tumor-bearing mouse blood at 8 to 10 uCi, iv after 5 mins by gamma counting; assay type: ADME, organism-based; details: in vivo
Nucleic Acid [14] = test: Ratio of drug level in tumor to muscle in S180 tumor-bearing mouse at 8 to 10 uCi, iv at 5 mins by gamma counting; assay type: ADME, organism-based; details: in vivo
Nucleic Acid [15] = test: Ratio of drug level in tumor to blood in S180 tumor-bearing mouse at 8 to 10 uCi, iv at 5 mins by gamma counting; assay type: ADME, organism-based; details: tumour
Nucleic Acid [16] = test: Ratio of drug level in tumor to brain in S180 tumor-bearing mouse at 8 to 10 uCi, iv at 5 mins by gamma counting; assay type: ADME, organism-based; details: in vivo
Heart [17] = test: Biodistribution in S180 tumor-bearing mouse heart at 8 to 10 uCi, iv after 30 mins by gamma counting; assay type: ADME, organism-based; details: in vivo, 0.5 h
Liver [18] = test: Biodistribution in S180 tumor-bearing mouse liver at 8 to 10 uCi, iv after 30 mins by gamma counting; assay type: ADME, organism-based; details: in vivo, 0.5 h
Spleen [19] = test: Biodistribution in S180 tumor-bearing mouse spleen at 8 to 10 uCi, iv after 30 mins by gamma counting; assay type: ADME, organism-based; details: in vivo, 0.5 h
Lung [20] = test: Biodistribution in S180 tumor-bearing mouse lung at 8 to 10 uCi, iv after 30 mins by gamma counting; assay type: ADME, organism-based; details: in vivo, 0.5 h
Kidney [21] = test: Biodistribution in S180 tumor-bearing mouse kidney at 8 to 10 uCi, iv after 30 mins by gamma counting; assay type: ADME, organism-based; details: in vivo, 0.5 h
Stomach [22] = test: Biodistribution in S180 tumor-bearing mouse stomach at 8 to 10 uCi, iv after 30 mins by gamma counting; assay type: ADME, organism-based; details: in vivo, 0.5 h
Muscle tissue [23] = test: Biodistribution in S180 tumor-bearing mouse muscle at 8 to 10 uCi, iv after 30 mins by gamma counting; assay type: ADME, organism-based; details: in vivo, 0.5 h
Brain [24] = test: Biodistribution in S180 tumor-bearing mouse brain at 8 to 10 uCi, iv after 30 mins by gamma counting; assay type: ADME, organism-based; details: in vivo, 0.5 h
Mus musculus [25] = test: Biodistribution in S180 cells xenografted in mouse tumor at 8 to 10 uCi, iv after 30 mins by gamma counting; assay type: ADME, organism-based, Neoplasm, CCRF S-180; details: in vivo, 0.5 h
Blood [26] = test: Biodistribution in S180 tumor-bearing mouse blood at 8 to 10 uCi, iv after 30 mins by gamma counting; assay type: ADME, organism-based; details: in vivo, 0.5 h
Nucleic Acid [27] = test: Ratio of drug level in tumor to muscle in S180 tumor-bearing mouse at 8 to 10 uCi, iv at 30 mins by gamma counting; assay type: ADME, organism-based; details: in vivo, 0.5 h
Nucleic Acid [28] = test: Ratio of drug level in tumor to blood in S180 tumor-bearing mouse at 8 to 10 uCi, iv at 30 mins by gamma counting; assay type: ADME, organism-based; details: tumour, 0.5 h
Nucleic Acid [29] = test: Ratio of drug level in tumor to brain in S180 tumor-bearing mouse at 8 to 10 uCi, iv at 30 mins by gamma counting; assay type: ADME, organism-based; details: in vivo, 0.5 h
Heart [30] = test: Biodistribution in S180 tumor-bearing mouse heart at 8 to 10 uCi, iv after 60 mins by gamma counting; assay type: ADME, organism-based; details: in vivo, 1 h
Liver [31] = test: Biodistribution in S180 tumor-bearing mouse liver at 8 to 10 uCi, iv after 60 mins by gamma counting; assay type: ADME, organism-based; details: in vivo, 1 h
Spleen [32] = test: Biodistribution in S180 tumor-bearing mouse spleen at 8 to 10 uCi, iv after 60 mins by gamma counting; assay type: ADME, organism-based; details: in vivo, 1 h
Lung [33] = test: Biodistribution in S180 tumor-bearing mouse lung at 8 to 10 uCi, iv after 60 mins by gamma counting; assay type: ADME, organism-based; details: in vivo, 1 h
Kidney [34] = test: Biodistribution in S180 tumor-bearing mouse kidney at 8 to 10 uCi, iv after 60 mins by gamma counting; assay type: ADME, organism-based; details: in vivo, 1 h
Stomach [35] = test: Biodistribution in S180 tumor-bearing mouse stomach at 8 to 10 uCi, iv after 60 mins by gamma counting; assay type: ADME, organism-based; details: in vivo, 1 h
Muscle tissue [36] = test: Biodistribution in S180 tumor-bearing mouse muscle at 8 to 10 uCi, iv after 60 mins by gamma counting; assay type: ADME, organism-based; details: in vivo, 1 h
Brain [37] = test: Biodistribution in S180 tumor-bearing mouse brain at 8 to 10 uCi, iv after 60 mins by gamma counting; assay type: ADME, organism-based; details: in vivo, 1 h
Mus musculus [38] = test: Biodistribution in S180 cells xenografted in mouse tumor at 8 to 10 uCi, iv after 60 mins by gamma counting; assay type: ADME, organism-based, Neoplasm, CCRF S-180; details: in vivo, 1 h
Blood [39] = test: Biodistribution in S180 tumor-bearing mouse blood at 8 to 10 uCi, iv after 60 mins by gamma counting; assay type: ADME, organism-based; details: in vivo, 1 h
Nucleic Acid [40] = test: Ratio of drug level in tumor to muscle in S180 tumor-bearing mouse at 8 to 10 uCi, iv at 60 mins by gamma counting; assay type: ADME, organism-based; details: in vivo, 1 h
Nucleic Acid [41] = test: Ratio of drug level in tumor to blood in S180 tumor-bearing mouse at 8 to 10 uCi, iv at 60 mins by gamma counting; assay type: ADME, organism-based; details: tumour, 1 h
Nucleic Acid [42] = test: Ratio of drug level in tumor to brain in S180 tumor-bearing mouse at 8 to 10 uCi, iv at 60 mins by gamma counting; assay type: ADME, organism-based; details: in vivo, 1 h
Heart [43] = test: Biodistribution in S180 tumor-bearing mouse heart at 8 to 10 uCi, iv after 120 mins by gamma counting; assay type: ADME, organism-based; details: in vivo, 2 h
Liver [44] = test: Biodistribution in S180 tumor-bearing mouse liver at 8 to 10 uCi, iv after 120 mins by gamma counting; assay type: ADME, organism-based; details: in vivo, 2 h
Spleen [45] = test: Biodistribution in S180 tumor-bearing mouse spleen at 8 to 10 uCi, iv after 120 mins by gamma counting; assay type: ADME, organism-based; details: in vivo, 2 h
Lung [46] = test: Biodistribution in S180 tumor-bearing mouse lung at 8 to 10 uCi, iv after 120 mins by gamma counting; assay type: ADME, organism-based; details: in vivo, 2 h
Kidney [47] = test: Biodistribution in S180 tumor-bearing mouse kidney at 8 to 10 uCi, iv after 120 mins by gamma counting; assay type: ADME, organism-based; details: in vivo, 2 h
Stomach [48] = test: Biodistribution in S180 tumor-bearing mouse stomach at 8 to 10 uCi, iv after 120 mins by gamma counting; assay type: ADME, organism-based; details: in vivo, 2 h
Muscle tissue [49] = test: Biodistribution in S180 tumor-bearing mouse muscle at 8 to 10 uCi, iv after 120 mins by gamma counting; assay type: ADME, organism-based; details: in vivo, 2 h
Brain [50] = test: Biodistribution in S180 tumor-bearing mouse brain at 8 to 10 uCi, iv after 120 mins by gamma counting; assay type: ADME, organism-based; details: in vivo, 2 h
Mus musculus [51] = test: Biodistribution in S180 cells xenografted in mouse tumor at 8 to 10 uCi, iv after 120 mins by gamma counting; assay type: ADME, organism-based, Neoplasm, CCRF S-180; details: in vivo, 2 h
Blood [52] = test: Biodistribution in S180 tumor-bearing mouse blood at 8 to 10 uCi, iv after 120 mins by gamma counting; assay type: ADME, organism-based; details: in vivo, 2 h
Nucleic Acid [53] = test: Ratio of drug level in tumor to muscle in S180 tumor-bearing mouse at 8 to 10 uCi, iv at 120 mins by gamma counting; assay type: ADME, organism-based; details: in vivo, 2 h
Nucleic Acid [54] = test: Ratio of drug level in tumor to blood in S180 tumor-bearing mouse at 8 to 10 uCi, iv at 120 mins by gamma counting; assay type: ADME, organism-based; details: tumour, 2 h
Nucleic Acid [55] = test: Ratio of drug level in tumor to brain in S180 tumor-bearing mouse at 8 to 10 uCi, iv at 120 mins by gamma counting; assay type: ADME, organism-based; details: in vivo, 2 h

For `COc1cc2ncnc(Nc3ccc(F)c(Cl)c3)c2cc1OCC[18F]`, the logP [1] was 0.39, the Stability (Plasma) was “Stable” and the Stability [2] was “Stable”. The Stability [3] was “Stable”, the Drug uptake (Heart [4]) was 4.4 % ID/g and the Drug uptake (Liver [5]) was 11.34 % ID/g. The Drug uptake (Spleen [6]) was 4.5 % ID/g, the Drug uptake (Lung [7]) was 4.6 % ID/g and the Drug uptake (Kidney [8]) was 14.25 % ID/g. The Drug uptake (Stomach [9]) was 5.35 % ID/g, the Drug uptake (Muscle tissue [10]) was 5.12 % ID/g and the Drug uptake (Brain [11]) was 1.97 % ID/g. The Drug uptake (Mus musculus [12]) was 1.87 % ID/g, the Drug uptake (Blood [13]) was 7 % ID/g and the Ratio (Nucleic Acid [14]) was 0.37. The Ratio (Nucleic Acid [15]) was 0.27, the Ratio (Nucleic Acid [16]) was 0.95 and the Drug uptake (Heart [17]) was 5.02 % ID/g. It also gave a Drug uptake (Liver [18]) of 5.38 % ID/g, a Drug uptake (Spleen [19]) of 3.67 % ID/g and a Drug uptake (Lung [20]) of 4.57 % ID/g. It also gave a Drug uptake (Kidney [21]) of 5.2 % ID/g, a Drug uptake (Stomach [22]) of 11.87 % ID/g and a Drug uptake (Muscle tissue [23]) of 4.18 % ID/g. It also gave a Drug uptake (Brain [24]) of 3.15 % ID/g, a Drug uptake (Mus musculus [25]) of 5.8 % ID/g and a Drug uptake (Blood [26]) of 5.85 % ID/g. For the same compound, the Ratio (Nucleic Acid [27]) was 1.39, the Ratio (Nucleic Acid [28]) was 0.99 and the Ratio (Nucleic Acid [29]) was 1.84. For the same compound, the Drug uptake (Heart [30]) was 4.26 % ID/g, the Drug uptake (Liver [31]) was 4.22 % ID/g and the Drug uptake (Spleen [32]) was 3.23 % ID/g. For the same compound, the Drug uptake (Lung [33]) was 3.75 % ID/g, the Drug uptake (Kidney [34]) was 3.99 % ID/g and the Drug uptake (Stomach [35]) was 4.44 % ID/g. For the same compound, the Drug uptake (Muscle tissue [36]) was 3.35 % ID/g, the Drug uptake (Brain [37]) was 2.94 % ID/g and the Drug uptake (Mus musculus [38]) was 5.51 % ID/g. For the same compound, the Drug uptake (Blood [39]) was 5.07 % ID/g, the Ratio (Nucleic Acid [40]) was 1.64 and the Ratio (Nucleic Acid [41]) was 1.09. The Ratio (Nucleic Acid [42]) was 1.87, the Drug uptake (Heart [43]) was 2.52 % ID/g and the Drug uptake (Liver [44]) was 2.58 % ID/g. It also gave a Drug uptake (Spleen [45]) of 2.39 % ID/g, a Drug uptake (Lung [46]) of 2.57 % ID/g and a Drug uptake (Kidney [47]) of 2.23 % ID/g. For the same compound, the Drug uptake (Stomach [48]) was 3.64 % ID/g, the Drug uptake (Muscle tissue [49]) was 1.74 % ID/g and the Drug uptake (Brain [50]) was 1.98 % ID/g. The Drug uptake (Mus musculus [51]) was 4.71 % ID/g, the Drug uptake (Blood [52]) was 3.61 % ID/g and the Ratio (Nucleic Acid [53]) was 2.71. For the same compound, the Ratio (Nucleic Acid [54]) was 1.3 and the Ratio (Nucleic Acid [55]) was 2.38.
